Where a SMILES comes first, the peptide text is derived from it.
Tested on: monoclonal antibody specific for the natural N-terminal Aβ42 sequence DAEFRH
Assay: Inhibition assay: mimotope peptides compete with plate-bound DAEFRH-BSA for recognition by the biotinylated monoclonal antibody (ELISA)
Format: binding, mice
Set-up: key to inhibition (s/m/—): s: strong inhibition; m: moderate inhibition; —: no inhibition
Settings: for Inhibitory capacity of mimotopes: summary Tables 1 and 2, in words; for inhibition of epitope recognition by the monoclonal antibody (in words): FIGS. 2-9; for concentration at which the peptide is only inhibitory: only inhibitory at a (relatively) high concentration; for inhibition (s/m/—): peptides of the new screening round and 5mers with non natural amino acids
Description: 1.: Generation of Monoclonal Antibodies (mAb) to Detect Aβ42-Derived Peptide Species with Free N-Terminus (Free Aspartic Acid at the N-Terminus)
Mice are vaccinated with the 6mer peptide DAEFRH (SEQ ID NO: 26) (natural N-terminal Aβ42 sequence) linked to the protein bovine serum albumin BSA (to make use of the hapten-carrier-effect), emulsified in CFA (first injection) and IFA (booster injections). DAEFRH (SEQ ID NO: 26)-peptide-specific, antibody-producing hybridomas are detected by ELISA (DAEFRH (SEQ ID NO: 26)-peptide-coated ELISA plates).
(§1) FIGS. 2 and 3 describe the results of inhibition assays performed with mimotope peptides included in and obtained from the 5 libraries (as described). The mimotope peptides compete with the original epitope for recognition by the monoclonal antibody. Original epitope and mimotope peptides contain an additional C at the C-terminus for coupling to a protein carrier (if desired).
(§2) After blocking with PBS/BSA 1% (200 μl/well, 12 h, 4° C.), the plates are washed 3× times with PBS/Tween. Then, biotinylated monoclonal antibody (1:2000, 50 μl/well) and peptides (50 μl/well) at 50, 5, 0.5, 0.05, 0.005, and 0.0005 μg/ml are added for 20 min. at 37° C. The plates are washed 3× times with PBS/Tween and are incubated with horseradish peroxidase (HRP)-labeled streptavidin (100 μl/well, 30 min, RT). The plates are washed 5× times with PBS/Tween and are incubated with ABTS+H2O2 (0.1% w/v, 10 to 45 min) and the reaction is stopped with citric acid followed by photometric evaluation (wavelength 405 nm).
as §1, with “4” for “2”, “5” for “3”, “C-terminus (position 7)” for “C-terminus”
as §2, with “different concentrations” for “50, 5, 0.5, 0.05, 0.005, and 0.0005 μg/ml”
as §1, with “6 to 8” for “2 and 3”, “2” for “5”, “described above).” for “described).”, “C-terminus (position 7 or position 8, respectively)” for “C-terminus”

N=C(N)NCCC[C@H](NC(=O)[C@H](Cc1ccccc1)NC(=O)[C@H](CCC(=O)O)NC(=O)[C@H](Cc1ccccc1)NC(=O)[C@@H](N)CO)C(=O)NCC(=O)N[C@@H](CS)C(=O)O [Peptide 3009, SFEFRG]
Inhibitory capacity of mimotopes: weak

GREFRN [Peptide 4003]
inhibition of epitope recognition by the monoclonal antibody (in words): block epitope recognition | concentration at which the peptide is only inhibitory: 10 µg/mL | Inhibitory capacity of mimotopes: weak

SAEFRTQ [Peptide 4015]
inhibition of epitope recognition by the monoclonal antibody (in words): strongly block epitope recognition | inhibition (s/m/—): s

CC[C@H](C)[C@H](NC(=O)[C@H](CCCCN)NC(=O)[C@H](CC(C)C)NC(=O)[C@H](CCC(=O)O)NC(=O)[C@H](CCCCN)NC(=O)[C@@H](N)CC(=O)O)C(=O)N[C@@H](CS)C(=O)O [Peptide 1236, DKELKI]
inhibition of epitope recognition by the monoclonal antibody (in words): block epitope recognition | Inhibitory capacity of mimotopes: weak

CC(C)C[C@H](NC(=O)[C@@H](N)CCC(=O)O)C(=O)N[C@@H](CCC(=O)O)C(=O)N[C@@H](Cc1ccccc1)C(=O)N[C@@H](CCCNC(=N)N)C(=O)NCC(=O)N[C@@H](CS)C(=O)O [Peptide 3008, ELEFRG]
Inhibitory capacity of mimotopes: weak

WHWSWR [Peptide 4004]
inhibition of epitope recognition by the monoclonal antibody (in words): not able to inhibit binding | Inhibitory capacity of mimotopes: none

SWEFRNP [Peptide 4017]
inhibition of epitope recognition by the monoclonal antibody (in words): strongly block epitope recognition | inhibition (s/m/—): s

SWEFRLY [Peptide 4018]
inhibition of epitope recognition by the monoclonal antibody (in words): strongly block epitope recognition | inhibition (s/m/—): s

CC[C@H](C)[C@H](NC(=O)[C@H](CCCNC(=N)N)NC(=O)[C@H](CC(C)C)NC(=O)[C@H](CCC(=O)O)NC(=O)[C@H](CCCNC(=N)N)NC(=O)[C@@H](N)CC(=O)O)C(=O)N[C@@H](CS)C(=O)O [Peptide 1235, DRELRI]
inhibition of epitope recognition by the monoclonal antibody (in words): block epitope recognition | Inhibitory capacity of mimotopes: strong

CCC[C@H](NC(=O)[C@H](CCC(=O)O)NC(=O)[C@H](CCCCN)NC(=O)[C@@H](N)CC(=O)O)C(=O)N[C@@H](CCCNC(=N)N)C(=O)N[C@@H](CS)C(=O)O [Peptide 4063, DKE(Nva)R] (HELM PEPTIDE1{D.K.E.[Nva].R.C}$$$$V2.0)
inhibition of epitope recognition by the monoclonal antibody (in words): block epitope recognition | inhibition (s/m/—): m

CC[C@H](C)[C@H](NC(=O)[C@H](CCCNC(=N)N)NC(=O)[C@H](CC(C)C)NC(=O)[C@H](CCC(=O)O)NC(=O)[C@H](Cc1c[nH]c2ccccc12)NC(=O)[C@@H](N)CC(=O)O)C(=O)N[C@@H](CS)C(=O)O [Peptide 3002, DWELRI]
inhibition of epitope recognition by the monoclonal antibody (in words): block epitope recognition | Inhibitory capacity of mimotopes: intermediate

DISFRG [Peptide 3010]
inhibition of epitope recognition by the monoclonal antibody (in words): not inhibitory at the concentrations tested | Inhibitory capacity of mimotopes: none

DNEFRSP [Peptide 4012]
inhibition of epitope recognition by the monoclonal antibody (in words): moderately inhibit binding | inhibition (s/m/—): s

ATYAYWN [Peptide 4038]
inhibition of epitope recognition by the monoclonal antibody (in words): not inhibitory at the concentrations tested | inhibition (s/m/—): —

VPTSALA [Peptide 4037]
inhibition of epitope recognition by the monoclonal antibody (in words): not inhibitory at the concentrations tested | inhibition (s/m/—): —

SWFRNP [Peptide 4019]
inhibition of epitope recognition by the monoclonal antibody (in words): not inhibitory at the concentrations tested | inhibition (s/m/—): —

N=C(N)NCCC[C@H](NC(=O)[C@H](CC1CCCCC1)NC(=O)[C@H](CCC(=O)O)NC(=O)[C@H](CCCCN)NC(=O)[C@@H](N)CC(=O)O)C(=O)N[C@@H](CS)C(=O)O [Peptide 4064, DKEC(Cha)R]
inhibition of epitope recognition by the monoclonal antibody (in words): block epitope recognition | inhibition (s/m/—): m

DIGWRG [Peptide 3011]
inhibition of epitope recognition by the monoclonal antibody (in words): not inhibitory at the concentrations tested | Inhibitory capacity of mimotopes: none

YREFRI [Peptide 3004]
inhibition of epitope recognition by the monoclonal antibody (in words): block epitope recognition | concentration at which the peptide is only inhibitory: 50 µg/mL | Inhibitory capacity of mimotopes: weak

CC[C@H](C)[C@H](NC(=O)[C@H](CCCNC(=N)N)NC(=O)[C@H](CC(C)C)NC(=O)[C@H](CCC(=O)O)NC(=O)[C@H](CCCCN)NC(=O)[C@@H](N)CC(=O)O)C(=O)N[C@@H](CS)C(=O)O [Peptide 3001, DKELRI]
inhibition of epitope recognition by the monoclonal antibody (in words): block epitope recognition | Inhibitory capacity of mimotopes: strong

N=C(N)NCCC[C@H](NC(=O)[C@H](Cc1ccccc1)NC(=O)[C@H](CCC(=O)O)NC(=O)[C@H](Cc1ccc(O)cc1)NC(=O)[C@@H](N)CC(=O)O)C(=O)NCC(=O)N[C@@H](CS)C(=O)O [Peptide 3007, DYEFRG]
inhibition of epitope recognition by the monoclonal antibody (in words): block epitope recognition | Inhibitory capacity of mimotopes: strong

GSEFRDY [Peptide 4013]
inhibition of epitope recognition by the monoclonal antibody (in words): moderately inhibit binding | inhibition (s/m/—): m

SAEFRAT [Peptide 4016]
inhibition of epitope recognition by the monoclonal antibody (in words): strongly block epitope recognition | inhibition (s/m/—): s

DAEFRWP [Peptide 4011]
inhibition of epitope recognition by the monoclonal antibody (in words): strongly block epitope recognition | inhibition (s/m/—): s

GAEFRFT [Peptide 4014]
inhibition of epitope recognition by the monoclonal antibody (in words): moderately inhibit binding | inhibition (s/m/—): m

YREFFI [Peptide 3003]
inhibition of epitope recognition by the monoclonal antibody (in words): not able to inhibit binding | Inhibitory capacity of mimotopes: none

C[C@H](NC(=O)[C@@H](N)Cc1ccc(O)cc1)C(=O)N[C@@H](CCC(=O)O)C(=O)N[C@@H](Cc1ccccc1)C(=O)N[C@@H](CCCNC(=N)N)C(=O)NCC(=O)N[C@@H](CS)C(=O)O [Peptide 3005, YAEFRG]
inhibition of epitope recognition by the monoclonal antibody (in words): block epitope recognition | Inhibitory capacity of mimotopes: intermediate

C[C@@H](O)[C@H](NC(=O)[C@H](CCCNC(=N)N)NC(=O)[C@H](Cc1ccccc1)NC(=O)[C@H](CCC(=O)O)NC(=O)[C@H](Cc1c[nH]c2ccccc12)NC(=O)[C@@H](N)CO)C(=O)N[C@@H](CS)C(=O)O [Peptide 4002, SWEFRT]
inhibition of epitope recognition by the monoclonal antibody (in words): block epitope recognition | IC50 (inhibition of monoclonal antibody binding to the original epitope) (competition ELISA, plate-bound DAEFRH-BSA, peptides 20 min at 37° C.): less than 0.4 μg/ml | Inhibitory capacity of mimotopes: strong

C[C@H](NC(=O)[C@@H](N)CCC(=O)O)C(=O)N[C@@H](CCC(=O)O)C(=O)N[C@@H](Cc1ccccc1)C(=O)N[C@@H](CCCNC(=N)N)C(=O)NCC(=O)N[C@@H](CS)C(=O)O [Peptide 3006, EAEFRG]
inhibition of epitope recognition by the monoclonal antibody (in words): block epitope recognition | Inhibitory capacity of mimotopes: strong

CCCC[C@H](NC(=O)[C@H](CCC(=O)O)NC(=O)[C@H](CCCCN)NC(=O)[C@@H](N)CC(=O)O)C(=O)N[C@@H](CCCNC(=N)N)C(=O)N[C@@H](CS)C(=O)O [Peptide 4062, DKE(Nle)R] (HELM PEPTIDE1{D.K.E.[Nle].R.C}$$$$V2.0)
inhibition of epitope recognition by the monoclonal antibody (in words): block epitope recognition | inhibition (s/m/—): m

KKELRI [Peptide 1234]
inhibition of epitope recognition by the monoclonal antibody (in words): hardly inhibitory at the concentrations tested | Inhibitory capacity of mimotopes: none

CC[C@H](C)[C@H](NC(=O)[C@H](CCCCN)NC(=O)[C@H](CC(C)C)NC(=O)[C@H](CCC(=O)O)NC(=O)[C@H](CCCNC(=N)N)NC(=O)[C@@H](N)CC(=O)O)C(=O)N[C@@H](CS)C(=O)O [Peptide 1237, DRELKI]
inhibition of epitope recognition by the monoclonal antibody (in words): block epitope recognition | Inhibitory capacity of mimotopes: weak

C[C@H](NC(=O)[C@H](CC(=O)O)NC(=O)[C@H](CCCNC(=N)N)NC(=O)[C@H](Cc1ccccc1)NC(=O)[C@H](CCC(=O)O)NC(=O)[C@H](Cc1c[nH]c2ccccc12)NC(=O)[C@@H](N)CC(=O)O)C(=O)N[C@@H](CS)C(=O)O [Peptide 1241, DWEFRDA]
inhibition of epitope recognition by the monoclonal antibody (in words): block epitope recognition | Inhibitory capacity of mimotopes: strong
